{
  "source": "patent US7928063B2",
  "about": "“Analogs of human growth hormone-releasing hormone, their preparation and use” (Instytut Farmaceutyczny, priority 2001, dated 2011)",
  "key": {"trypsin": {"system": "trypsin", "assay": "Trypsin digestion test (enzymatic resistance, HPLC)", "assay_type": "in vitro ADME", "settings": "for Resistance to trypsin digestion (in words): after 30 minutes; for remaining at 0.5 h, 0.4 mg/ml / remaining at 1 h, 0.4 mg/ml: trypsin, pH 8.5, 37° C., read-out: % Unchanged compound; for remaining at 0.5 h, 0.4 mg/ml: digestion time 30 min.; for remaining at 1 h, 0.4 mg/ml: digestion time 60 min.", "protocol": "The compounds prepared were also tested for enzymatic resistance in the trypsin digestion test. […] Subsequently, a trypsin solution was added (100 μl; 0.02 mg/ml; Serva, 36 U/mg). […] An aliquot (500 μl) was withdrawn and diluted with 0.5 M acetic acid (1 ml), then lyophilized. The material obtained was analyzed by HPLC, using a Knauer system with an Eurospher 100 C18 (4.6×250 mm, 5 micron) column. The following solvent systems were used: A, 0.1% TFA in water; […]"}, "GH release": {"system": "GH release", "assay": "Effect of subcutaneous administration on GH release (plasma GH by RIA) in male rats", "assay_type": "in vivo, rat", "settings": "for Relative potency compared with hGH-RH-(1-29)—NH2: at 15 minutes after the injection; for Plasma GH at various times after injection, 15 min. / Plasma GH at various times after injection, 30 min. / Plasma GH at various times after injection, 0 min.: male rats, mean ± SEM; for Plasma GH at various times after injection, 0 min.: sample 1 minute before injection; for Net GH concentration Δ(15 − 30): GH at 15 min. minus GH at 30 min.; for Net GH concentration Δ(15 − 0): GH at 15 min. minus GH before injection"}, "[1]": {"settings": "trypsin solution (Serva, 36 U/mg)"}},
  "note": "Like-named read-outs stand apart in the source and are kept apart here. Square brackets hold non-standard residues; d marks the D form. Peptide text beside a SMILES is read from it. * marks the point of attachment. Desaminotyrosyl = O=C(CCc1ccc(O)cc1)*; hArg = N=C(N)NCCCC[C@H](N)C(=O)O; Nle = CCCC[C@H](N)C(=O)O",
  "data": [
    {"smiles": "CCCC[C@H](NC(=O)[C@@H](NC(=O)[C@H](CC(=O)O)NC(=O)[C@H](CCC(N)=O)NC(=O)[C@H](CC(C)C)NC(=O)[C@H](CC(C)C)NC(=O)[C@H](CCCCNC(=N)N)NC(=O)[C@H](CCCCNC(=N)N)NC(=O)[C@H](C)NC(=O)[C@H](CO)NC(=O)[C@H](CC(C)C)NC(=O)[C@H](CCC(N)=O)NC(=O)[C@H](C)NC(=O)[C@H](CC(C)C)NC(=O)[C@@H](NC(=O)[C@H](CCCCNC(=N)N)NC(=O)[C@H](CCCCNC(=N)N)NC(=O)[C@H](Cc1ccc(O)cc1)NC(=O)[C@H](CO)NC(=O)[C@H](CC(N)=O)NC(=O)[C@@H](NC(=O)[C@H](Cc1ccccc1)NC(=O)[C@@H](NC(=O)[C@H](C)NC(=O)[C@H](CC(=O)O)NC(=O)[C@H](C)NC(=O)CCc1ccc(O)cc1)[C@@H](C)CC)[C@@H](C)O)C(C)C)[C@@H](C)CC)C(=O)N[C@@H](CC(=O)O)C(=O)N[C@@H](CCCCNC(=N)N)C(N)=O", "note": "[Compound 1, Dat-Ala-Asp-Ala-Ile-Phe-Thr-Asn-Ser-Tyr^10-hArg-hArg-Val-Leu-Ala-Gln-Leu-Ser-Ala-hArg^20-hArg-Leu-Leu-Gln-Asp-Ile-Nle-Asp-hArg^29-NH2] (Desaminotyrosyl-ADAIFTNSY[hArg][hArg]VLAQLSA[hArg][hArg]LLQDI[Nle]D[hArg]-NH2)", "values": [
      {"measurement": "Resistance to trypsin digestion (in words)", "setting": "trypsin", "result": "unchanged"},
      {"measurement": "remaining at 0.5 h, 0.4 mg/ml", "setting": "trypsin; isolated enzyme trypsin", "result": "> 99", "unit": "%"},
      {"measurement": "remaining at 1 h, 0.4 mg/ml", "setting": "trypsin; isolated enzyme trypsin", "result": "> 99", "unit": "%"},
      {"measurement": "Relative potency compared with hGH-RH-(1-29)—NH2", "setting": "GH release; dose 1.0 μg/kg vs 50 μg/kg of hGH-RH-(1-29)—NH2", "result": 70, "unit": "times higher"},
      {"measurement": "Relative potency compared with hGH-RH-(1-29)—NH2", "setting": "GH release; dose 3.0 μg/kg vs 150 μg/kg of hGH-RH-(1-29)—NH2", "result": 38, "unit": "times higher"},
      {"measurement": "Plasma GH at various times after injection, 15 min.", "setting": "GH release; sc., dose 1 μg/kg", "result": "99.1 ± 16", "unit": "ng/mL"},
      {"measurement": "Plasma GH at various times after injection, 30 min.", "setting": "GH release; sc., dose 1 μg/kg", "result": "42.5 ± 9.2", "unit": "ng/mL"},
      {"measurement": "Plasma GH at various times after injection, 0 min.", "setting": "GH release; sc., dose 1 μg/kg", "result": "23.1 ± 2", "unit": "ng/mL"},
      {"measurement": "Plasma GH at various times after injection, 15 min.", "setting": "GH release; sc., dose 3 μg/kg", "result": "130 ± 16", "unit": "ng/mL"},
      {"measurement": "Plasma GH at various times after injection, 30 min.", "setting": "GH release; sc., dose 3 μg/kg", "result": "58.4 ± 8.9", "unit": "ng/mL"},
      {"measurement": "Plasma GH at various times after injection, 0 min.", "setting": "GH release; sc., dose 3 μg/kg", "result": "28.3 ± 4.1", "unit": "ng/mL"},
      {"measurement": "Effect on GH release in rats, compared with saline control (in words)", "setting": "GH release; rats, sc.", "result": "strongest stimulating effect"},
      {"measurement": "Net GH concentration Δ(15 − 30)", "setting": "GH release; rats, sc., dose 1 μg/kg", "result": "56.5 ± 14.7", "unit": "ng/mL"},
      {"measurement": "Net GH concentration Δ(15 − 0)", "setting": "GH release; rats, sc., dose 1 μg/kg", "result": "75.9 ± 16.0", "unit": "ng/mL"},
      {"measurement": "Net GH concentration Δ(15 − 30)", "setting": "GH release; rats, sc., dose 3 μg/kg", "result": "72.0 ± 12.6", "unit": "ng/mL"},
      {"measurement": "Net GH concentration Δ(15 − 0)", "setting": "GH release; rats, sc., dose 3 μg/kg", "result": "102 ± 12.6", "unit": "ng/mL"}
    ]},
    {"smiles": "CC[C@H](C)[C@H](NC(=O)[C@H](C)NC(=O)[C@H](CC(=O)O)NC(=O)[C@H](C)NC(=O)[C@@H](N)Cc1ccc(O)cc1)C(=O)N[C@@H](Cc1ccccc1)C(=O)N[C@H](C(=O)N[C@@H](CC(N)=O)C(=O)N[C@@H](CO)C(=O)N[C@@H](Cc1ccc(O)cc1)C(=O)N[C@@H](CCCNC(=N)N)C(=O)N[C@@H](CCCCN)C(=O)N[C@H](C(=O)N[C@@H](CC(C)C)C(=O)NCC(=O)N[C@@H](CCC(N)=O)C(=O)N[C@@H](CC(C)C)C(=O)N[C@@H](CO)C(=O)N[C@@H](C)C(=O)N[C@@H](CCCNC(=N)N)C(=O)N[C@@H](CCCCN)C(=O)N[C@@H](CC(C)C)C(=O)N[C@@H](CC(C)C)C(=O)N[C@@H](CCC(N)=O)C(=O)N[C@@H](CC(=O)O)C(=O)N[C@H](C(=O)N[C@@H](CCSC)C(=O)N[C@@H](CO)C(=O)N[C@@H](CCCNC(=N)N)C(N)=O)[C@@H](C)CC)C(C)C)[C@@H](C)O", "note": "[hGH-RH(1-29)-NH2, reference compound]", "values": [
      {"measurement": "Resistance to trypsin digestion (in words)", "setting": "trypsin", "result": "complete digestion"},
      {"measurement": "remaining at 0.5 h, 0.4 mg/ml", "setting": "trypsin; [1]", "result": 0, "unit": "%"},
      {"measurement": "remaining at 1 h, 0.4 mg/ml", "setting": "trypsin; [1]", "result": 0, "unit": "%"}
    ]}
  ]
}
